US10219516B2, “Molecules having pesticidal utility, and intermediates, compositions, and processes, related thereto” (priority 2015, dated 2019)

What was measured:
Assay type in all cases: in vivo
[1] = tested on: Beet Armyworm (Spodoptera exigua, LAPHEG); test: Bioassay on Beet Armyworm (BAW), 128-well diet tray assay; settings: Beet Armyworm, 128-well diet tray assay, read-out: BAW rating
Summary of the method: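 Percent mortality, averaged across eight replicate wells, was scored after five to seven days at 25° C. under a 14:10 light-dark cycle. Each well's diet carried 50 μg/cm^2 of the dried test molecule and held one to five second instar larvae.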

[2] = tested on: Cabbage Looper (Trichoplusia ni, TRIPNI); test: Bioassay on Cabbage Looper (CL), 128-well diet tray assay; settings: Trichoplusia ni; Cabbage Looper, 128-well diet tray assay; read-out: CL rating
Summary of the method: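 Percent mortality, averaged across eight replicate wells, was scored after five to seven days at 25° C. under a 14:10 light-dark cycle. Each well held one to five second instar larvae on artificial diet treated at 50 μg/cm^2 with compound from 90:10 acetone-water, allowed to dry before infestation.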

[3] = tested on: Yellow Fever Mosquito (Aedes aegypti, AEDSAE); test: Bioassay on Yellow Fever Mosquito (YFM), 96-well plate larval assay; settings: Yellow Fever Mosquito, 96-well plate larval assay
Summary of the method: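 Aedes aegypti larvae (about 1 day old) in liver-powder water were added to plates dispensed from DMSO master plates (4000 ppm stock) diluted with 90:10 water/acetone; six replicate plates per master. Lidded plates were held at room temperature for 3 days, then each well was scored for mortality.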

| Structure (SMILES) | pest or weed control at 50 µg/cm2 [1] | pest or weed control at 50 µg/cm2 [2] | YFM rating [3] |
| --- | --- | --- | --- |
| O=C(Nc1ccc(F)cc1F)c1cc(NC(=O)[C@H]2[C@H](c3cc(F)cc(F)c3)C2(Cl)Cl)ccc1Cl (relative stereo) [F411, 2-Chloro-5-(trans)-(2,2-dichloro-3-(3,5-difluorophenyl)cyclopropane-1-carboxamido)-N-(2,4-difluorophenyl)benzamide] | 50 to 100% | 50 to 100% | A (80-100) |
| C#CCN(C(=O)c1cc(NC(=O)[C@H]2[C@H](c3cc(Cl)cc(Cl)c3)C2(Cl)Cl)ccc1Cl)c1ccc(F)cc1 (relative stereo) [F413, trans-2-Chloro-5-(2,2-dichloro-3-(3,5-dichlorophenyl)cyclopropane-1-carboxamido)-N-(4-fluorophenyl)-N-(prop-2-yn-1-yl)benzamide] | 50 to 100% | 50 to 100% | A (80-100) |
| O=C(Nc1ccc(F)cc1)c1cc(NC(=O)[C@H]2[C@H](c3ccc([N+](=O)[O-])cc3)C2(Cl)Cl)ccc1Cl (relative stereo) [F422, 2-chloro-5-(trans-2,2-dichloro-3-(4-nitrophenyl)cyclopropane-1-carboxamido)-N-(4-fluorophenyl)benzamide] | 50 to 100% | 50 to 100% | A (80-100) |
| O=C(Nc1ccc(F)cc1F)c1cc(NC(=O)[C@H]2[C@H](c3cc(Br)cc(C(F)(F)F)c3)C2(Cl)Cl)ccc1Cl (relative stereo) [F424, 5-(trans)-(3-(3-Bromo-5-(trifluoromethyl)phenyl)-2,2-dichlorocyclopropane-1-carboxamido)-2-chloro-N-(2,4-difluorophenyl)benzamide] | 50 to 100% | 50 to 100% | A (80-100) |
| O=C(Nc1ccc(-n2cccn2)cc1)c1cc(NC(=O)[C@H]2[C@H](c3cc(Cl)cc(Cl)c3)C2(Cl)Cl)ccc1Cl (relative stereo) [F440, trans-N-(4-(1H-Pyrazol-1-yl)phenyl)-2-chloro-5-(2,2-dichloro-3-(3,5-dichlorophenyl)cyclopropanecarboxamido)benzamide] | 50 to 100% | 50 to 100% | A (80-100) |
| O=C(Nc1ccc2sccc2c1)c1cc(NC(=O)[C@H]2[C@H](c3cc(Cl)cc(Cl)c3)C2(Cl)Cl)ccc1Cl (relative stereo) [F452, trans-N-(Benzo[b]thiophen-5-yl)-2-chloro-5-(2,2-dichloro-3-(3,5-dichlorophenyl)cyclopropane-1-carboxamido)benzamide] | 50 to 100% | 50 to 100% | A (80-100) |
| CN1C(=O)Cc2cc(NC(=O)c3cc(NC(=O)[C@H]4[C@H](c5cc(Cl)cc(Cl)c5)C4(Cl)Cl)ccc3Cl)ccc21 (relative stereo) [F459, 2-Chloro-5-(trans)-(2,2-dichloro-3-(3,5-dichlorophenyl)cyclopropane-1-carboxamido)-N-(1-methyl-2-oxoindolin-5-yl)benzamide] | 50 to 100% | 50 to 100% | A (80-100) |
| Cn1nc(NC(=O)c2cc(NC(=O)[C@H]3[C@H](c4cc(Cl)cc(Cl)c4)C3(Cl)Cl)ccc2Cl)c2cc(C(F)(F)F)ccc21 (relative stereo) [F460, 2-Chloro-5-(trans)-(2,2-dichloro-3-(3,5-dichlorophenyl)cyclopropane-1-carboxamido)-N-(1-methyl-5-(trifluoromethyl)-1H-indazol-3-yl)benzamide] | 50 to 100% | 50 to 100% | A (80-100) |
| O=C(Nc1ccc(-c2nccs2)cc1)c1cc(NC(=O)[C@H]2[C@H](c3cc(Cl)cc(Cl)c3)C2(Cl)Cl)ccc1Cl (relative stereo) [F461, trans-2-Chloro-5-(2,2-dichloro-3-(3,5-dichlorophenyl)cyclopropane-1-carboxamido)-N-(4-(thiazol-2-yl)phenyl)benzamide] | 50 to 100% | 50 to 100% | A (80-100) |
| O=C(Nc1cc(F)c2[nH]ccc2c1)c1cc(NC(=O)[C@H]2[C@H](c3cc(Cl)cc(Cl)c3)C2(Cl)Cl)ccc1Cl (relative stereo) [F462, 2-Chloro-5-(trans)-(2,2-dichloro-3-(3,5-dichlorophenyl)cyclopropane-1-carboxamido)-N-(7-fluoro-1H-indol-5-yl)benzamide] | 50 to 100% | 50 to 100% | A (80-100) |
| Cn1nc(NC(=O)c2cc(NC(=O)[C@H]3[C@H](c4cc(Cl)cc(Cl)c4)C3(Cl)Cl)ccc2Cl)c2c(Cl)cccc21 (relative stereo) [F463, 2-Chloro-N-(4-chloro-1-methyl-1H-indazol-3-yl)-5-(trans)-(2,2-dichloro-3-(3,5-dichlorophenyl)cyclopropane-1-carboxamido)benzamide] | 50 to 100% | 50 to 100% | A (80-100) |
| Cn1ccc2cc(NC(=O)c3cc(NC(=O)[C@H]4[C@H](c5cc(Cl)cc(Cl)c5)C4(Cl)Cl)ccc3Cl)cnc21 (relative stereo) [F464, 2-Chloro-5-(trans)-(2,2-dichloro-3-(3,5-dichlorophenyl)cyclopropane-1-carboxamido)-N-(1-methyl-1H-pyrrolo[2,3-b]pyridin-5-yl)benzamide] | 50 to 100% | 50 to 100% | A (80-100) |
| CC(=O)N(C(C)=O)c1ccc(NC(=O)c2cc(NC(=O)[C@H]3[C@H](c4cc(Cl)cc(Cl)c4)C3(Cl)Cl)ccc2Cl)c(C#N)c1 (relative stereo) [F469, trans-N-(4-(N-acetylacetamido)-2-cyanophenyl)-2-chloro-5-(2,2-dichloro-3-(3,5-dichlorophenyl)cyclopropane-1-carboxamido)benzamide] | 50 to 100% | 50 to 100% | A (80-100) |
| O=C1Cc2cc(NC(=O)c3cc(NC(=O)[C@H]4[C@H](c5cc(Cl)cc(Cl)c5)C4(Cl)Cl)ccc3Cl)ccc2N1 (relative stereo) [F472, 2-Chloro-5-(trans)-(2,2-dichloro-3-(3,5-dichlorophenyl)cyclopropane-1-carboxamido)-N-(2-oxoindolin-5-yl)benzamide] | 50 to 100% | 50 to 100% | A (80-100) |
| CN1CCc2cc(NC(=O)c3cc(NC(=O)[C@H]4[C@H](c5cc(Cl)cc(Cl)c5)C4(Cl)Cl)ccc3Cl)ccc21 (relative stereo) [F473, 2-Chloro-5-(trans)-(2,2-dichloro-3-(3,5-dichlorophenyl)cyclopropane-1-carboxamido)-N-(1-methylindolin-5-yl)benzamide] | 50 to 100% | 50 to 100% | A (80-100) |
| O=C(Nc1cc2cc[nH]c2cn1)c1cc(NC(=O)[C@H]2[C@H](c3cc(Cl)cc(Cl)c3)C2(Cl)Cl)ccc1Cl (relative stereo) [F474, 2-Chloro-5-(trans)-(2,2-dichloro-3-(3,5-dichlorophenyl)cyclopropane-1-carboxamido)-N-(1H-pyrrolo[2,3-c]pyridin-5-yl)benzamide] | 50 to 100% | 50 to 100% | A (80-100) |
| Cn1ncc2cc(NC(=O)c3cc(NC(=O)[C@H]4[C@H](c5cc(Cl)cc(Cl)c5)C4(Cl)Cl)ccc3Cl)cnc21 (relative stereo) [F476, 2-Chloro-5-(trans)-(2,2-dichloro-3-(3,5-dichlorophenyl)cyclopropane-1-carboxamido)-N-(1-methyl-1H-pyrazolo[3,4-b]pyridin-5-yl)benzamide] | 50 to 100% | 50 to 100% | A (80-100) |
| Cc1ccc2c(N)nn(C(=O)c3cc(NC(=O)[C@H]4[C@H](c5cc(Cl)cc(Cl)c5)C4(Cl)Cl)ccc3Cl)c2c1 (relative stereo) [F477, (trans)-N-(3-(3-Amino-6-methyl-1H-indazole-1-carbonyl)-4-chlorophenyl)-2,2-dichloro-3-(3,5-dichlorophenyl)cyclopropane-1-carboxamide] | 50 to 100% | 50 to 100% | A (80-100) |
| Cc1ccc2c(NC(=O)c3cc(NC(=O)[C@H]4[C@H](c5cc(Cl)cc(Cl)c5)C4(Cl)Cl)ccc3Cl)n[nH]c2c1 (relative stereo) [F478, 2-Chloro-5-(trans)-(2,2-dichloro-3-(3,5-dichlorophenyl)cyclopropane-1-carboxamido)-N-(6-methyl-1H-indazol-3-yl)benzamide] | 50 to 100% | 50 to 100% | A (80-100) |
| Nc1ccc2c(c1)CN(C(=O)c1cc(NC(=O)[C@H]3[C@H](c4cc(Cl)cc(Cl)c4)C3(Cl)Cl)ccc1Cl)C2 (relative stereo) [F479, (trans)-N-(3-(5-Aminoisoindoline-2-carbonyl)-4-chlorophenyl)-2,2-dichloro-3-(3,5-dichlorophenyl)cyclopropane-1-carboxamide] | 50 to 100% | 50 to 100% | A (80-100) |
